Series [1] can be described thus: pKa of nanoparticle compositions. The class given is physicochemical.
The subject of series [2] is modified luciferase (Luc) expression. Kind of series: Expression upon intramuscular administration of Luc mRNA and H10 mRNA formulations. Particulars: 6 hours after intramuscular administration. It is filed as in vivo. How it is done:
Sample formulations including both modified luciferase (Luc) mRNA and H10 mRNA were prepared and administered intramuscularly at day 1 and day 21 and the resulting expression and immunogenicity were evaluated simultaneously. Formulations including compounds according to formula (20-I) were prepared and administered at doses of 0.001 and 0.01 mpk (e.g., doses of 0.0005 mpk of a formulation including Luc mRNA and a formulation including H10 mRNA or doses of 0.005 mpk of a formulation including Luc mRNA and a formulation including H10 mRNA). As shown in Table 20-4, the total flux was higher upon administration of the second dose for each composition and at each dose level. Total flux was higher for the higher dose level.

We go through two compounds from patent US10195156B2, “Compounds and compositions for intracellular delivery of agents” (ModernaTX, Inc., priority 2015, dated 2019).

By pKa is commonly meant the pH at which an ionisable group is half protonated. Take `CCCCCCCCCCCCN(CCCCCCCCCCCC)CCN(CCCCCCCCCCCC)CCN1CCN(CCN(CCCCCCCCCCCC)CCCCCC(=O)OCCCCC)CC1` [Compound 12, Pentyl 6-((2-(4-(2-((2-(didodecylamino)ethyl)(dodecyl)amino)ethyl)piperazin-1-yl)ethyl)(dodecyl)amino)hexanoate]: the pKa in series [1] (Table 1, rows without footnote mark) was 5.44; in series [1] (Table 5, hEPO mRNA, 40:20:38.5:1.5 Lipid:DOPE:Chol:PEG-DMG), 5.444.
Turning to `CCCCCC=CCC=CCCCCCCCCC(CCCCCCCCC=CCC=CCCCCC)OC(=O)CCCN(C)C` (stereo not drawn) [MC3, heptatriaconta-6,9,28,31-tetraen-19-yl 4-(dimethylamino)butanoate, reference compound], in series [2] (0.001 mpk, Dose 1), the “Total flux (p/s) 0.001 mpk Dose 1” value came out at 1.23E+06 p/s. Moreover, the “Total flux (p/s) 0.001 mpk Dose 2” value in series [2] (0.001 mpk, Dose 2) is 1.09E+06 p/s. In addition, in series [2] (0.01 mpk, Dose 1), the “Total flux (p/s) 0.01 mpk Dose 1” value worked out at 1.79E+07 p/s. In series [2] (0.01 mpk, Dose 2), the “Total flux (p/s) 0.01 mpk Dose 2” value was 3.13E+07 p/s.
